Source: patent publication US9951041B2, “Crystalline C21H22Cl2N4O2 malonate” (BIOMED VALLEY DISCOVERIES, INC., priority 2015, dated 2018)
In brackets after ≈: the same amount, converted by molar mass.

What was measured:
[1] = Pharmacokinetic evaluation in male beagles, two-way cross-over, oral gavage; assay type: in vivo
Text: […]. […] […]

[2] = Aqueous dissolution/solubility in fasting state simulated gastric fluid (FaSSGF) pH 1.6; settings: for Conc (solubility): pH 1.6 FaSSGF buffer, ambient temperature, shaken
Text: Samples of 4-(5-Chloro-2-isopropylaminopyridin-4-yl)-1H-pyrrole-2-carboxylic acid [1-(3-chlorophenyl)-2-hydroxyethyl]amide Form C and 4-(5-Chloro-2-isopropylaminopyridin-4-yl)-1H-pyrrole-2-carboxylic acid [1-(3-chlorophenyl)-2-hydroxyethyl]amide malonate Form A were each shaken at ambient temperature in fasting state simulated gastric fluid (FaSSGF) pH 1.6 for 30. Concentration of 4-(5-Chloro-2-isopropylaminopyridin-4-yl)-1H-pyrrole-2-carboxylic acid [1-(3-chlorophenyl)-2-hydroxyethyl]amide was measured at 5, 15 and 30 minutes.

[3] = Aqueous dissolution/solubility in fasting state simulated intestinal fluid (FaSSIF) pH 6.5 after 30 min in FaSSGF; assay type: physicochemical; settings: pH 6.5 FaSSIF buffer, after 30 min FaSSGF
Protocol: After 30 minutes, the samples were removed from FaSSGF, placed in fasting state simulated intestinal fluid (FaSSIF) pH 6.5, with shaking, for an additional 5 hours.

[4] = pH 1.6, fassgf or other biorelevant, thermodynamic from solid

Row | coefficient of variation (CV) of average area under the curve (AUC) ([1]; male, beagle, dog, in vivo, po, 5 mg/kg) [%] | solubility at 5 min [2, 4] [µg/mL] | solubility at 15 min [2, 4] [µg/mL] | solubility at 30 min [2, 4] [µg/mL] | solubility at 10 min ([3]; fasting state simulated intestinal fluid (FaSSIF), thermodynamic from solid, 10 min, read-out: Conc (solubility)) [µg/mL] | solubility at 30 min ([3]; fasting state simulated intestinal fluid (FaSSIF), thermodynamic from solid, 30 min, read-out: Conc (solubility)) [µg/mL] | solubility at 60 min ([3]; fasting state simulated intestinal fluid (FaSSIF), thermodynamic from solid, 60 min, read-out: Conc (solubility)) [µg/mL] | solubility at 90 min ([3]; fasting state simulated intestinal fluid (FaSSIF), thermodynamic from solid, 90 min, read-out: Conc (solubility)) [µg/mL] | solubility at 120 min ([3]; fasting state simulated intestinal fluid (FaSSIF), thermodynamic from solid, 120 min, read-out: Conc (solubility)) [µg/mL] | solubility at 180 min ([3]; fasting state simulated intestinal fluid (FaSSIF), thermodynamic from solid, 180 min, read-out: Conc (solubility)) [µg/mL] | solubility at 270 min ([3]; fasting state simulated intestinal fluid (FaSSIF), thermodynamic from solid, 270 min, read-out: Conc (solubility)) [µg/mL] | solubility at 300 min ([3]; fasting state simulated intestinal fluid (FaSSIF), thermodynamic from solid, 300 min, read-out: Conc (solubility)) [µg/mL] | SMILES | coefficient of variation (CV) of average area under the curve (AUC) ([1]; male beagles, single dose 5 mg/kg by oral gavage, plasma 0-24 hours) [%] | Conc (solubility) ([2]; 15 min) [µg/mL] | Conc (solubility) ([2]; 30 min) [µg/mL] | Conc (solubility) ([3]; 30 min) [µg/mL] | Conc (solubility) ([3]; 120 min) [µg/mL] | Conc (solubility) ([3]; 270 min) [µg/mL] | Conc (solubility) ([3]; 300 min) [µg/mL]
1 |  |  |  |  |  |  |  |  |  |  |  |  | CC(C)Nc1cc(-c2c[nH]c(C(=O)NC(CO)c3cccc(Cl)c3)c2)c(Cl)cn1 (stereo not shown) [Form C, 4-(5-Chloro-2-isopropylaminopyridin-4-yl)-1H-pyrrole-2-carboxylic acid [1-(3-chlorophenyl)-2-hydroxyethyl]amide Form C] | 39 | 101.35 | 136.97 | 169.89 | 332.68 | 128.38 | 154.70
2 | 50 | 381 (≈ 878 µM) | 385 (≈ 889 µM) | 369 (≈ 851 µM) | 63.3 (≈ 146 µM) | 110 (≈ 254 µM) | 114 (≈ 263 µM) | 115 (≈ 266 µM) | 110 (≈ 254 µM) | 110 (≈ 255 µM) | 116 (≈ 267 µM) | 115 (≈ 266 µM) | CC(C)Nc1cc(-c2c[nH]c(C(=O)N[C@H](CO)c3cccc(Cl)c3)c2)c(Cl)cn1 [Malonate Form A, 4-(5-Chloro-2-isopropylaminopyridin-4-yl)-1H-pyrrole-2-carboxylic acid [1-(3-chlorophenyl)-2-hydroxyethyl]amide malonate Form A] |  |  |  |  |  |  | 
